Data on four molecules can be found in ChEMBL document CHEMBL3797127, “Design, synthesis and evaluation of pyrrolo[2,3-d]pyrimidine-phenylamide hybrids as potent Janus kinase 2 inhibitors” (Bioorg Med Chem Lett, 2016).

Series [1] deals with T1, Tyrosine-protein kinase JAK3 (Homo sapiens, UniProt P52333).
T1 sequence (P52333 whole entry): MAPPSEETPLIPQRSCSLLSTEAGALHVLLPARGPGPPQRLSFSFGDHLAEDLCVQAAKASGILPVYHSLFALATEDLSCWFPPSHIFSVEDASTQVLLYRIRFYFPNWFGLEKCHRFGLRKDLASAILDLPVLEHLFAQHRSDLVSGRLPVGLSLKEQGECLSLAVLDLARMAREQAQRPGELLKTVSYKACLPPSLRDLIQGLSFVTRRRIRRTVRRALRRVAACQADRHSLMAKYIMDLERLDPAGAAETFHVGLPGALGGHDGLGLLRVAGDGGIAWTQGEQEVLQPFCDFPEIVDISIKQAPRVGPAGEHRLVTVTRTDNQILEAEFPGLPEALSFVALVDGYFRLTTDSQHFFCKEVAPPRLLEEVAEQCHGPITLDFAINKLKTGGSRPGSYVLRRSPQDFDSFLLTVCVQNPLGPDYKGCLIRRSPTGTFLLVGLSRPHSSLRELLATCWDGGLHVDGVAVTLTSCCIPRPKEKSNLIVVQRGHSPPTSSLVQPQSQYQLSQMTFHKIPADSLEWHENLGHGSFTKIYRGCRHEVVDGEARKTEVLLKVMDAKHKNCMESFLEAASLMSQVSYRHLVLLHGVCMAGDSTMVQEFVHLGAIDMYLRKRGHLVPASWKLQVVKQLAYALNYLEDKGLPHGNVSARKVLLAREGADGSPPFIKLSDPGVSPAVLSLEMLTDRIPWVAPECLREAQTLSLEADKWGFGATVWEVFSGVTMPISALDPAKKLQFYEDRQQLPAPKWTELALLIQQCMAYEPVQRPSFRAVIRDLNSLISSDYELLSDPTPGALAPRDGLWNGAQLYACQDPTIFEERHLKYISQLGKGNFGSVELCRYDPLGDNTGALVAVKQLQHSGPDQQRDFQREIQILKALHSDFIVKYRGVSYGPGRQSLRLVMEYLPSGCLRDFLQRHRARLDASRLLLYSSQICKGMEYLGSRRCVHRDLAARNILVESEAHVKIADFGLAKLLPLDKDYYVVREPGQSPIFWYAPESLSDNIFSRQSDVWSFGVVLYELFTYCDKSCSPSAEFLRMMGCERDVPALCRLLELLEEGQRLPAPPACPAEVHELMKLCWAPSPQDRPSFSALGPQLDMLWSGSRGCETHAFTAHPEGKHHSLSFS
Description: Inhibition of recombinant human GST-tagged JAK3 expressed in baculovirus expression system using Z'-LYTE Try6 peptide as substrate incubated for 1 hr by Z'-LYTE assay

The nature of series [2]: in vivo. The note with it: Sprague-Dawley, rat, po, 10 mg/kg.
The nature of series [3]: in vivo. Conditions: Sprague-Dawley, rat, iv, 4 mg/kg.
Series [4] can be described thus: in vivo. The note with it: Sprague-Dawley, rat, po, 10 mg/kg. This is another data set of the same source.
Description: Half life in Sprague-Dawley rat at 10 mg/kg, po administered through gavage
Series [5] can be described thus: in vivo. Conditions: Sprague-Dawley, rat, po, 10 mg/kg. This is another data set of the same source.
Series [6] can be described thus: in vivo. Conditions: Sprague-Dawley, rat, iv, 4 mg/kg. The source holds these as a separate data set.
Description: Half life in Sprague-Dawley rat at 4 mg/kg, iv administered as bolus dose
Series [7] can be described thus: in vivo. The note with it: Sprague-Dawley, rat, iv, 4 mg/kg. This is another data set of the same source.
Series [8] in a line: in vivo. Conditions: Sprague-Dawley, rat, po, 10 mg/kg. This is another data set of the same source.
The nature of series [9]: in vivo. The note with it: Sprague-Dawley, rat, po, 10 mg/kg. The source holds these as a separate data set.
Series [10] can be described thus: in vivo. Conditions: Sprague-Dawley, rat, iv, 4 mg/kg. This is another data set of the same source.
Series [11] is described as follows: in vivo. The note with it: Sprague-Dawley, rat, iv, 4 mg/kg. The source holds these as a separate data set.

As for `Cn1c(C(=O)NCCN2CCCC2)cc2c(-c3ccc(NC(=O)[C@@H]4CCCN4C(=O)OC(C)(C)C)cc3)ncnc21`, the IC50 (in general, the midpoint of a concentration-inhibition curve) in [1] was 716 nM.

`Cn1c(C(=O)NCCN2CCCC2)cc2c(-c3ccc(NC(=O)C(C)(C)C)cc3)ncnc21` came in with an IC50 in series [1] of 953 nM.

On to `Cn1c(C(=O)NCCCN2CCOCC2)cc2c(-c3ccc(NC(=O)C(C)(C)C)cc3)ncnc21`, for which the AUC(0-t) (usually exposure summed from dosing to a finite time, without extrapolation to infinity) at 24 h in [2] was 36300 ng·h/mL; in [3], 19700 ng·h/mL. In series [1], this molecule displayed an IC50 of 584 nM. In addition, the results for the half-life in [4] and in series [6] were 2.32 h and 2.09 h, respectively. Moreover, the Tmax (commonly the time at which the peak concentration occurs) in series [5] was determined as 4 h. The Cmax – broadly, the maximum level reached in the sampled fluid or tissue – in series [7] amounted to 9730 ng/mL; in [9], 6140 ng/mL. Further, the bioavailability (commonly the share of a dose that reaches the circulation, judged against a reference dose that is usually intravenous) in series [8] turned out to be 73.6%. Also, the clearance (commonly the volume of plasma or blood freed of the substance per unit of time) in series [10] was determined as 3.3 mL/min/kg. Besides, in [11], the Vd (usually a proportionality between amount in the body and measured concentration, not a real space) worked out at 0.612 L/kg.

Turning to `Cn1c(C(=O)NCCCN2CCOCC2)cc2c(-c3ccc(NC(=O)[C@@H]4CCCN4C(=O)OC(C)(C)C)cc3)ncnc21`, the IC50 in series [1] was determined as 507 nM.
